Test system: non-small cell lung cancer patient specimens (adenocarcinomas and squamous cell carcinoma)
Test: International Adjuvant Lung Trial (IALT): cisplatin-based therapy vs observation, DFS/OS against IHC DNA repair biomarker Q-scores (Cox PH models)
Format: in vivo, human
Method: An immunohistochemical evaluation of DNA Repair Proteins was conducted on a large international patient specimen collection from the IALT trial (International Adjuvant Lung Trial). This clinical trial originally comprised approximately 1867 non-small cell lung cancer patient specimens (adenocarcinomas and squamous cell carcinoma) and was designed to test clinical parameters for patients receiving either cisplatin-based therapy or those considered observation. One problem with testing of biomarkers in general from clinical trials is that the patient population treatments are generally a mixture of several different treatments and combinations of such and so results may be confounded by interactions of various treatments. However, the IALT trial represents pristine treatment arms of cisplatin and observation and thus is relatively free of confounding affects due to treatment variation.
International Adjuvant Lung Cancer Trial (IALT) NSCLC FFPE patient specimens constructed on TMAs (13 total) were stained by IHC for DNA repair biomarkers: ATM, MSH2, ERCC1, p53, pMK2, PARP1, BRCA1, XPF. An average of 603 patients were analyzed for each biomarker. Tumor biomarker nuclear or cytoplasmic levels were determined using digital image user defined macros. Scores were generated based on weighted intensity and quantity of stained cells. In reference to accompanying diagrams in the Powerpoint files, please note that a wide dynamic range achieved during assay development and optimization in commercially available TMAs is translationally achieved when patients comprising this study population are stained, annotated for tumor region and scored by user-defined macros.
Previous studies have utilized standard pathologist-based scoring, thus we chose to optimize the IHC-based assessment of biomarker levels using digital pathology and weighted scoring. This endeavor is undertaken so that for a given population a continuum of scores (herein referred to as Q-scores) with a broad dynamic range may be generated by user defined macros. Here, scoring of individual tumor cells comprising each patient specimen is generated and then patients assembled into a population continuum of scores against which finer cut-points may tested and established rather than crude binning methods as employed in previous studies.
Q-score=10*(% of 10+cells)+9*(% of 9+cells)+8*(% of 8+cells)+7*(% of 7+cells) . . . 1*(% of 1+cells)
Cox PH models adjusted for relevant clinical and stratification variables were used in the univariate analyses of Disease-Free Survival (DFS) and Overall Survival (OS). Initial analyses were conducted using biomarker Q scores as continuous variables against clinical endpoint metrics.

[1] = ERCC1 model, ADENOCARCINOMA, Without variables
[2] = ERCC1 model, SQUAMOUS CELLS, With adjustment variables
[3] = ERCC1 model, SQUAMOUS CELLS, With selected variables
[4] = ERCC1 model, SQUAMOUS CELLS, Without variables
[5] = Mean Q score PMK2 nuclear (PMK2MN), Adenocarcinoma, with adjustment variables
[6] = Mean Q score PMK2 nuclear (PMK2MN), Adenocarcinoma, with selected variables
[7] = Mean Q score PMK2 nuclear (PMK2MN), Adenocarcinoma, without variables
[8] = Mean Q score PMK2 nuclear (PMK2MN), Squamous Cells, with adjustment variables
[9] = Mean Q score PMK2 nuclear (PMK2MN), Squamous Cells, with selected variables
[10] = Mean Q score PMK2 nuclear (PMK2MN), Squamous Cells, without variables
[11] = Mean Q score of PMK2 cytoplasm divided by nuclear (PMK2MCNp), Adenocarcinoma, with adjustment variables
[12] = Mean Q score of PMK2 cytoplasm divided by nuclear (PMK2MCNp), Adenocarcinoma, with selected variables
[13] = Mean Q score of PMK2 cytoplasm divided by nuclear (PMK2MCNp), Adenocarcinoma, without variables
[14] = Mean Q score sum of PMK2 cytoplasm & nuclear (PMK2MCNs), Adenocarcinoma, with adjustment variables
[15] = Mean Q score sum of PMK2 cytoplasm & nuclear (PMK2MCNs), Adenocarcinoma, with selected variables
[16] = Mean Q score sum of PMK2 cytoplasm & nuclear (PMK2MCNs), Adenocarcinoma, without variables
[17] = Mean Q score sum of PMK2 cytoplasm & nuclear (PMK2MCNs), Squamous Cells, with adjustment variables
[18] = Mean Q score sum of PMK2 cytoplasm & nuclear (PMK2MCNs), Squamous Cells, with selected variables
[19] = Mean Q score sum of PMK2 cytoplasm & nuclear (PMK2MCNs), Squamous Cells, without variables
[20] = Overall Survival, MEAN Q SCORE PMK2 CYTOPLASM, Adenocarcinoma, With adjustment variables
[21] = Overall Survival, MEAN Q SCORE PMK2 CYTOPLASM, Adenocarcinoma, With selected variables
[22] = Overall Survival, MEAN Q SCORE PMK2 CYTOPLASM, Adenocarcinoma, Without variables
[23] = Overall Survival, MEAN Q SCORE PMK2 CYTOPLASM, Squamous Cells, With selected variables
[24] = Overall Survival, MEAN Q SCORE PMK2 CYTOPLASM, Squamous Cells, Without variables
[25] = PARP1 model, SQUAMOUS CELLS, With adjustment variables
[26] = PARP1 model, SQUAMOUS CELLS, With selected variables
[27] = PARP1 model, SQUAMOUS CELLS, Without variables
[28] = XPF model, ADENOCARCINOMA, With adjustment variables
[29] = XPF model, ADENOCARCINOMA, With selected variables
[30] = XPF model, ADENOCARCINOMA, Without variables
[31] = XPF model, SQUAMOUS CELLS, With adjustment variables
[32] = XPF model, SQUAMOUS CELLS, With selected variables
[33] = XPF model, SQUAMOUS CELLS, Without variables

N.N.[Cl][Pt][Cl] [cisplatin]
HazardRatio, Treatment (ERCC1 model, ADENOCARCINOMA, With selected variables): 0.765
HazardRatio, ERCC1_Treatment [1]: 1.024
HazardRatio, Treatment [1]: 1.040
HazardRatio, ERCC1_Treatment [2]: 1.070
HazardRatio, Treatment [2]: 0.731
HazardRatio, ERCC1_Treatment [3]: 1.052
HazardRatio, Treatment [3]: 0.781
HazardRatio, ERCC1_Treatment [4]: 1.054
HazardRatio, Treatment [4]: 0.773
HazardRatio, PMK2MN_Treatment interaction (Disease Free Survival) [5]: 1.077
HazardRatio, Treatment (Disease Free Survival) [5]: 0.811
HazardRatio, PMK2MN_Treatment interaction (Disease Free Survival) [6]: 1.084
HazardRatio, Treatment (Disease Free Survival) [6]: 0.802
HazardRatio, PMK2MN_Treatment interaction (Disease Free Survival) [7]: 0.956
HazardRatio, Treatment (Disease Free Survival) [7]: 1.146
HazardRatio, PMK2MN_Treatment interaction (Disease Free Survival) [8]: 1.145
HazardRatio, Treatment (Disease Free Survival) [8]: 0.737
HazardRatio, PMK2MN_Treatment interaction (Disease Free Survival) [9]: 1.145
HazardRatio, Treatment (Disease Free Survival) [9]: 0.750
HazardRatio, PMK2MN_Treatment interaction (Disease Free Survival) [10]: 1.111
HazardRatio, Treatment (Disease Free Survival) [10]: 0.780
HazardRatio, PMK2MCNp_Treatment interaction (Disease Free Survival) [11]: 0.000
HazardRatio, Treatment (Disease Free Survival) [11]: 0.954
HazardRatio, PMK2MCNp_Treatment interaction (Disease Free Survival) [12]: 0.000
HazardRatio, Treatment (Disease Free Survival) [12]: 0.992
HazardRatio, PMK2MCNp_Treatment interaction (Disease Free Survival) [13]: 0.000
HazardRatio, Treatment (Disease Free Survival) [13]: 1.177
HazardRatio, Treatment (Disease Free Survival) (Mean Q score of PMK2 cytoplasm divided by nuclear (PMK2MCNp), Squamous Cells, with adjustment variables): 0.612
HazardRatio, Treatment (Disease Free Survival) (Mean Q score of PMK2 cytoplasm divided by nuclear (PMK2MCNp), Squamous Cells, with selected variables): 0.645
HazardRatio, Treatment (Disease Free Survival) (Mean Q score of PMK2 cytoplasm divided by nuclear (PMK2MCNp), Squamous Cells, without variables): 0.726
HazardRatio, PMK2MCNs_Treatment interaction (Disease Free Survival) [14]: 1.041
HazardRatio, Treatment (Disease Free Survival) [14]: 0.832
HazardRatio, PMK2MCNs_Treatment interaction (Disease Free Survival) [15]: 1.044
HazardRatio, Treatment (Disease Free Survival) [15]: 0.828
HazardRatio, PMK2MCNs_Treatment interaction (Disease Free Survival) [16]: 0.939
HazardRatio, Treatment (Disease Free Survival) [16]: 1.203
HazardRatio, PMK2MCNs_Treatment interaction (Disease Free Survival) [17]: 1.091
HazardRatio, Treatment (Disease Free Survival) [17]: 0.751
HazardRatio, PMK2MCNs_Treatment interaction (Disease Free Survival) [18]: 1.090
HazardRatio, Treatment (Disease Free Survival) [18]: 0.766
HazardRatio, PMK2MCNs_Treatment interaction (Disease Free Survival) [19]: 1.066
HazardRatio, Treatment (Disease Free Survival) [19]: 0.798
HazardRatio, PMK2MC_Treatrnent [20]: 1.001
HazardRatio, Treatment [20]: 0.883
HazardRatio, PMK2MC_Treatment [21]: 0.972
HazardRatio, Treatment [21]: 0.891
HazardRatio, PMK2MC_Treatment [22]: 0.639
HazardRatio, Treatment [22]: 1.264
HazardRatio, PMK2MC_Treatment [23]: 1.240
HazardRatio, Treatment [23]: 0.803
HazardRatio, PMK2MC_Treatment [24]: 1.147
HazardRatio, Treatment [24]: 0.835
HazardRatio, PARP1_Treatment [25]: 1.082
HazardRatio, Treatment [25]: 0.621
HazardRatio, PARP1_Treatment [26]: 1.062
HazardRatio, Treatment [26]: 0.687
HazardRatio, PARP1_Treatment [27]: 1.107
HazardRatio, Treatment [27]: 0.572
predictive HR, p53 (SCC, univariate Cox PH, biomarker Q score, DFS primary endpoint, OS secondary, p=0.005, 95% CI 1.035-1.212): 1.120
predictive HR, ATM (SCC, univariate Cox PH, biomarker Q score, DFS primary endpoint, OS secondary, p=0.010, 95% CI 1.046-1.405): 1.212
predictive HR, MSH2 (SCC, univariate Cox PH, biomarker Q score, DFS primary endpoint, OS secondary, p=0.012, 95% CI 1.044-1.42): 1.218
HazardRatio, Treatment [28]: 0.628
HazardRatio, XPF_Treatment [28]: 1.179
HazardRatio, Treatment [29]: 0.689
HazardRatio, XPF_Treatment [29]: 1.166
HazardRatio, Treatment [30]: 0.900
HazardRatio, XPF_Treatment [30]: 1.080
HazardRatio, Treatment [31]: 0.813
HazardRatio, XPF_Treatment [31]: 1.030
HazardRatio, Treatment [32]: 0.820
HazardRatio, XPF_Treatment [32]: 1.035
HazardRatio, Treatment [33]: 0.759
HazardRatio, XPF_Treatment [33]: 1.063

Reference: patent publication US20110217713A1 (On-Q-ity, priority 2010, published 2011)
